From patent US20060079510A1, “Use of PARP-1 inhibitors for protecting tumorcidal lymphocytes from apoptosis” (priority 2004, published 2006)
Entries after “also recorded” stand apart in the source; their conditions may differ.

Key:
[1] = tested on: peripheral blood lymphocytes; experiment: Oxidant-induced cell death in lymphocytes incubated with mononuclear phagocytes or hydrogen peroxide, flow cytometry; format: cell-based, human; conditions: for protection of lymphocytes from phagocyte-induced cell death (FIG. 1): overnight with autologous mononuclear phagocytes, catalase 200 U/ml, histamine, DPI 3 μM, p<0.001, n=4; for protection of lymphocytes from phagocyte- or hydrogen peroxide-induced (oxidant/ROS-induced) cell death / apoptosis: pretreatment, PJ34 250 nM, DPQ 3 μM, Z-VAD.fmk 100 μM, overnight incubation with phagocytes or H2O2
Procedure: Peripheral venous blood was obtained as freshly prepared leukopacks from healthy blood donors at the Blood Centre, Sahlgren's Hospital, Göteborg, Sweden, to study the activation characteristics of cytotoxic lymphocytes in the presence and absence of MO, and ROM inhibitors. The blood (65 ml) was mixed with 92.5 ml Iscove's medium, 35 ml 6% Dextran (Kabi Pharmacia, Stockholm, Sweden) and 7.5 ml acid citrate dextrose (ACD) (Baxter, Deerfield, Ill.). After incubation for 15 minutes at room temperature, the supernatant was carefully layered onto Ficoll-Hypaque (Lymphoprep, Myegaard, Norway). Mononuclear cells (MNC) were collected at the interface after centrifugation at 380 g for 15 minutes at room temperature, washed twice in PBS and resuspended in Iscove's medium supplemented with 10% human AB^+ serum. During all further separation of cells, the cell suspensions were kept in siliconized test tubes (Vacuette, Greiner, Stockholm).
The MNC were further separated into lymphocyte and monocyte (MO) populations using the counter-current centrifugal elutriation (CCE) technique originally described by Yasaka and co-workers (Yasaka, T. et al., J. Immunol., 127:1515) with modifications as described in Hansson, M., et al. (J. Immunol., 156: 42 (1996); hereby incorporated by reference). Briefly, the sedimentation rate of cells in a spinning rotor was balanced by a counter-directed flow through the chamber. By slowly increasing the flow rate, fractions of cells of well-defined sizes were collected. The MNC were resuspended in elutration buffer containing 0.5% BSA (ICN Biomedicals Inc., Aurora, Ohio) and 0.1% EDTA (VWR, Göteborg, Sweden) in buffered NaCl and fed into a Beckman J2-21 ultracentrifuge with a JE-6B rotor (Bechman Coulter Inc., Fullerton, Calif.) at 2100 rpm. A fraction with >90% MO was obtained at a flow rate of 19 ml/min. A lymphocyte fraction enriched for NK-cells (CD3^−/56^+ phenotype) and T-cells (CD3^+/56^−) was recovered at flow rates of 14-15 ml/min. This fraction contained <3% MO and consisted of CD3ε^−/56^+ NK-cells (45-50%), CD3ε^+/56^− T-cells (35-40%), CD3ε^−/56^− cells (5-10%), and CD3ε^+/56^+ cells (1-5%), as judged by flow cytometry. In some experiments, dynabeads (Dynal A/S, Oslo, Norway) coated with anti-CD56 were used to obtain purified lymphocyte preparations of T-cells, as described in detail by Hansson, M., et al., incorporated above.
Briefly, lymphocytes were incubated overnight with autologous mononuclear phagocytes in the presence or absence of catalase (200 U/ml), histamine ([…]) or DPI (3 μM).
Briefly, lymphocytes, pretreated with PJ34 (250 ηM), Z-VAD.fmk (100 μM) or medium, were subjected to mononuclear phagocytes at different Mo/Ly ratios (FIG. 5A) or to different concentrations of H2O2 (FIG. 5C). FIGS. 5A-5D illustrate that PJ34 protected lymphocytes from cell death induced by phagocytes ([…], ratio 1:1, p<0.05) and hydrogen peroxide (FIGS. 5C and 5D, 250 μM, p<0.001).

NK cells = conditions: H2-receptor antagonist or agonist; cited from earlier work
[2] = tested on: neoplastic disease and/or viral infection; experiment: Treatment of subjects with neoplastic disease and/or viral infection (Example 4); format: in vivo, human; conditions: CEP-6800 250 mg/day with IL-2, interferon-α and histamine, repeated every 4-6 weeks
Procedure: Subjects in need of enhanced cytotoxic lymphocyte activity, because of a neoplastic disease, and/or a viral infection such as hepatitis B (HBV), hepatitis C(HCV), human immunodeficiency virus (HIV), human papilloma virus (HPV) or herpes simplex virus (HSV) type 1 or 2, or other viral infections, are administered 250 mg/day of CEP-6800, a PARP-1 inhibitor. Additionally, subjects are administered human recombinant IL-2 (Proleukin®, Eurocetus) by subcutaneous injection or by continuous infusion of 27 μg/kg/day on days 1-5 and 8-12. The subjects also receive a daily dose of 6×10^6 U interferon-α administered by a suitable route, such as subcutaneous injection. This treatment also includes administering 0.2 to 2.0 mg or 3-10 μg/kg of histamine injected 1, 2, or more times per day in conjunction with the administration of IL-2 and/or interferon-α.
The above procedure is repeated every 4-6 weeks until an objective regression of the tumor is observed, or until improvement in the viral infection occurs. The therapy can be continued even after a first, second, or subsequent complete remission has been observed. In patients with complete responses, the therapy can be given with longer intervals between cycles. […]

tumoricidal lymphocytes = experiment: Tumor-killing function of tumoricidal lymphocytes after phagocyte or hydrogen peroxide exposure; format: cell-based, human; conditions: PJ34 250 nM or DPQ 3 μM
Description: As detailed above, a significant part of the dysfunction of tumor-killing lymphocytes at the site of malignant tumor growth has been attributed to inhibitory signals from tumor-infiltrating or tumor-adjacent phagocytes. […] However, the molecular events underlying phagocyte-induced lymphocyte apoptosis are not fully understood. The role of two enzyme systems responsible for induction and execution of apoptosis, caspases and the poly(ADP-ribose) polymerase (PARP) were investigated. Human tumoricidal lymphocytes were incubated with autologous mononuclear phagocytes or with exogenously added hydrogen peroxide, and assayed for apoptotic features at various time points. […] It is therefore believed that PARP-dependent cell death may be critically involved in phagocyte-dependent, oxygen free radical-induced cell death.

lymphocytes = experiment: Altered mitochondrial transmembrane potential (Mitochondrial Membrane Sensor Kit) and To-Pro-3 staining; format: cell-based, human; conditions: H2O2 250 μM or mononuclear phagocytes; PJ34 250 μM as printed
Procedure: A Mitochondrial Membrane Sensor Kit (BD Clontech) was used to identify cells with altered mitochondrial transmembrane potential according to the manufacturer's protocol.
Briefly, lymphocytes exposed to hydrogen peroxide (250 μM) were assayed for altered mitochondrial transmembrane potential and plasma membrane integrity at various time points. Depolarization of the Ψm is seen as an increase in green fluorescence (mitosensor monomers).

Hepatitis C = experiment: Treatment of subjects suffering from Hepatitis C (Example 3); format: in vivo, human; conditions: PJ34 100 mg/day intravenously, three weeks
Procedure: Subjects suffering from Hepatitis C are identified. Individuals are administered 100 mg/day of a PARP-1 inhibitor, PJ34, intravenously for a period of three weeks.

caspase-3 = experiment: Caspase activation in lymphocytes, FLICA assay (FAM-VAD.fmk), flow cytometry; format: cell-based, human; conditions: overnight, phagocytes ratio 1:1 or H2O2 250 μM; PJ34 pretreatment printed as 250 μM and 250 ηM
Procedure: To study the role of caspases for ROS-induced cell death in anti-neoplastic cells, lymphocytes subjected to phagocytes or hydrogen peroxide were assayed for binding of a fluorochrome-conjugated caspase-3 inhibitor. Briefly, lymphocytes were incubated overnight with hydrogen peroxide (250 μM) or ROS-producing phagocytes (Ph, ratio 1:1) and then assayed for caspase activation using a Fluorochrome-Labeled Inhibitor of Caspases (FLICA) assay. Lymphocytes were incubated with a FITC-labeled caspase inhibitor (FAM-VAD.fmk, MP Biomedicals, Irvine, Calif.) for one hour according to the instructions provided by the manufacturer, and the percentage of cells with active caspase-3 was determined using flow cytometry. Caspase-3 activation was also monitored using the fluorogenic caspase-3 substrate PhiPhiLux (Oncolmmunin, Gaithersburg, Md.) according to the manufacturer's instructions. The FLICA reagent traverses the membranes of all cells and bind to the active site of activated caspase 3. Thus, only cells with activated caspases will retain the reagent and become fluorescent.
Briefly, after overnight incubation with mononuclear phagocytes (Ph, ratio 1:1) or hydrogen peroxide (250 μM) in the presence or absence of PJ34 (250 μM), lymphocytes were stained with a FITC-labeled caspase inhibitor (FAM-VAD.fmk) and assayed for caspase activation using flow cytometry. […]

AML = experiment: Treatment of subjects with AML in remission (Example 1); format: in vivo, human; conditions: 3-aminobenzamide s.c. (50 mg/day) with histamine dihydrochloride, IL-2, cytarabine and thioguanine, 21-day cycles
Procedure: Subjects with AML in a first, second, subsequent or complete remission are treated in 21-day courses with IL-2 (35-50 μg (equivalent to 6.3-9×10^5 IU) subcutaneously (s.c.). twice daily), repeated with three to six-week intermissions and continued until relapse. In cycle #1, patients receive three weeks of low dose chemotherapy consisting of 16 mg/m^2/day cytarabine, and 40 mg/day thioguanine. Concomitantly, patients are injected subcutaneously with an effective amount of a pharmaceutically acceptable form of a PARP-1 inhibitor, 3-aminobenzamide. Additionally, the patients are administered an effective amount of a pharmaceutically acceptable form of histamine dihydrochloride to boost circulating histamine to a beneficial level twice daily (above 0.2 μmole/L). Histamine levels can be continually boosted to beneficial levels by administering histamine dihydrochloride by injection at 0.2 to 2.0 mg or 3-10 μg/kg twice daily in a pharmaceutically acceptable form of a ROM inhibitory compound during the IL-2 treatment. Thereafter, the subjects are allowed to rest for three to six weeks. After the rest period at the end of the first cycle (cycle #1), the second cycle (cycle #2) is initiated. […]

[3] = vs subjects without PARP-1 inhibitor

c1ccc([I+]c2ccccc2)cc1 [DPI, diphenyliodonium]
protection of lymphocytes from phagocyte-induced cell death (FIG. 1) [1]: fully protected

CN(C)CCCSC(=N)N [dimaprit]
effect of histamine on granulocyte mediated suppression of antibody dependent cytotoxicity of NK cells (NK cells): mimicked

NCc1ccc2[nH]c3c4c(c5c(c3c2c1)C(=O)NC5=O)CCC4 [CEP-6800]
viral infection or tumor mass [2]: reduction in viral infection or tumor mass

O=C1NCCc2c(OCCCCN3CCCCC3)cccc21 [DPQ]
protection of lymphocytes from phagocyte- or hydrogen peroxide-induced (oxidant/ROS-induced) cell death / apoptosis [1]: completely protected; also recorded: resisted the oxidative stress | restoration of tumor-killing function (tumoricidal lymphocytes): restored

CN(C)CC(=O)Nc1ccc2[nH]c(=O)c3ccccc3c2c1 [PJ34]
protection from oxidant-induced alterations of Ψm (FIG. 4) (lymphocytes): protected | protection from cell death induced by hydrogen peroxide (FIGS. 5C and 5D) ([1]; PJ34 250 ηM, H2O2 250 μM, p<0.001): protected | protection from cell death induced by phagocytes ([1]; PJ34 250 ηM, Mo/Ly ratio 1:1, p<0.05): protected | protection of lymphocytes from phagocyte- or hydrogen peroxide-induced (oxidant/ROS-induced) cell death / apoptosis [1]: completely protected; also recorded: resisted the oxidative stress | symptoms associated with Hepatitis C (Hepatitis C): reduction in symptoms associated with Hepatitis C | ROM-mediated damage (Hepatitis C; [3]): reduction in ROM-mediated damage | cytotoxic lymphocyte activation (Hepatitis C; [3]): increase in cytotoxic lymphocyte activation | restoration of tumor-killing function (tumoricidal lymphocytes): restored | caspase activation triggered by phagocytes and H2O2 (FIG. 3) (caspase-3): reversed

NC(=O)c1cccc(N)c1 [3-aminobenzamide]
clinical outcome in AML (AML): reduction in cancer

Q-VD.OPh
protection of lymphocytes from phagocyte- or hydrogen peroxide-induced (oxidant/ROS-induced) cell death / apoptosis [1]: failed to protect

CNC(=C[N+](=O)[O-])NCCSCc1ccc(CN(C)C)o1 [ranitidine]
effect of histamine on granulocyte mediated suppression of antibody dependent cytotoxicity of NK cells (NK cells): blocked

B1: catalase: H2O2 scavenger (Boehringer-Mannheim) (protein, UniProt P00432 2-527, looked up)
Catalase: ADNRDPASDQMKHWKEQRAAQKPDVLTTGGGNPVGDKLNSLTVGPRGPLLVQDVVFTDEMAHFDRERIPERVVHAKGAGAFGYFEVTHDITRYSKAKVFEHIGKRTPIAVRFSTVAGESGSADTVRDPRGFAVKFYTEDGNWDLVGNNTPIFFIRDALLFPSFIHSQKRNPQTHLKDPDMVWDFWSLRPESLHQVSFLFSDRGIPDGHRHMNGYGSHTFKLVNANGEAVYCKFHYKTDQGIKNLSVEDAARLAHEDPDYGLRDLFNAIATGNYPSWTLYIQVMTFSEAEIFPFNPFDLTKVWPHGDYPLIPVGKLVLNRNPVNYFAEVEQLAFDPSNMPPGIEPSPDKMLQGRLFAYPDTHRHRLGPNYLQIPVNCPYRARVANYQRDGPMCMMDNQGGAPNYYPNSFSAPEHQPSALEHRTHFSGDVQRFNSANDDNVTQVRTFYLKVLNEEQRKRLCENIAGHLKDAQLFIQKKAVKNFSDVHPEYGSRIQALLDKYNEEKPKNAVHTYVQHGSHLSAREKANL
protection of lymphocytes from phagocyte-induced cell death (FIG. 1) [1]: fully protected
